{"source": "patent US20240299542A1", "about": "“NATURAL KILLER CELLS ENGINEERED TO REDUCE OR ELIMINATE CBL-B AND USES THEREOF” (City of Hope, priority 2021, published 2024)", "key": {"granzyme B": {"test_system": "granzyme B", "assay": "Granzyme B protein in supernatants by ELISA", "assay_type": "cell-based, human", "experimental": "FIGS. 3A-3E depict the results of a study showing that downregulation of Cbl-b enhances the cytotoxicity of primary human NK cells. (FIGS. 3A and 3B) Primary human NK cells transduced with Cbl-b siRNA or Scr siRNA for 24 h were stimulated without (FIG. 3A) or with (FIG. 3B) a low concentration of IL-15 (2 ng/ml) for 16 h, then co-cultured with ^51Cr labeled Molm-13, MV4-11 or EOL-1 leukemia cell lines for 4 h, followed by quantification of specific tumor cell lysis. Each experiment was repeated with 6 different normal donors. (FIG. 3C) qRT-PCR was performed to quantify the granzyme B (GZMB) mRNA levels (n=8 donors) in siRNA- and Scr siRNA-transduced primary human NK cells incubated without or with IL-15 (10 ng/ml) for 16 h. (FIG. 3D) The concentration of the granzyme B protein in the supernatants of Cbl-b siRNA- and Scr siRNA-transduced primary human NK cells incubated without (688.1 pg/ml vs 525.4 pg/ml; P=0.0232) or with IL-15 (10 ng/ml) for 24 h (8789 pg/ml vs 3397 pg/ml; P=0.0232) was measured by ELISA (n=8 donors). (FIG. 3E) The level of granzyme B protein in Cbl-b siRNA- and Scr siRNA-transduced primary human NK cells incubated without or with IL-15 (10 ng/ml) for 24 h was measured by immunoblot analysis. The data are representative of three experiments. Scr-scrambled; *P<0.05, **P<0.01, ***P<0.001, ****P<0.0001 by One-way or Two-way ANOVA; ns, not significant. Data presented as mean±SEM.\n(§1) ELISA. Primary NK cells were plated in an equivalent number of 100,000 cells/well in a 96-well plate in RPMI and supplemented with 10% FBS. Cells were treated with recombinant human IL-15 (10 ng/ml) for 24 h, and cell-free culture supernatant was collected and frozen at −80° C. for later use. IFN-γ concentration was measured by ELISA using anti-IFN-γ antibody from Thermo Fisher Scientific. Granzyme B concentration was measured by ELISA kit purchased from R&D.\n(§2) Both groups were next incubated without or with IL-15 and co-cultured with ^51Cr labeled MV4-11, Molm-13, or EOL-1 leukemia cell lines, followed by assessment of specific lysis measured after 4 h of co-culture."}, "IFN-γ": {"test_system": "IFN-γ", "assay": "IFN-γ in supernatants by ELISA", "assay_type": "cell-based, human", "experimental": "FIGS. 4A-4D depict the results of a study showing that downregulation of Cbl-b increases IFN-γ secretion in IL-15-activated primary human NK cells. (FIG. 4A) RNAseq was conducted using primary human NK cells transduced with either Cbl-b siRNA or Scr siRNA without or with incubation in IL-15 (10 ng/ml) for 16 h (4 donors for each group). […] (FIG. 4B) qRT-PCR was performed to quantify the mRNA levels of IFN-γ (n=6 donors) after IL-15 (10 ng/ml) 6 h stimulation. (FIG. 4C) The percentage of intracellular IFN-γ+ cells in un-transduced NK cells or those transduced with Cbl-b siRNA or Scr siRNA, each activated with IL-15 (10 ng/ml) for 24 h (11.5% vs 4.338%; P=0.0008; n=5 donors). (FIG. 4D) Supernatants were collected after IL-15 (10 ng/ml) for 24 h and IFN-γ concentrations measured by ELISA (18115 pg/ml vs 882.5 pg/ml; P=0.0099; n=7 donors). Scr-scrambled; *P<0.05, **P<0.01, ***P<0.001 by Student's two-tailed paired t-test or One-way ANOVA; ns, not significant. Data presented as mean±SEM.\nas §1\nTo further explore how Cbl-b regulates the functions of primary human NK cells, we performed RNA-seq analyses using enriched primary NK cells from healthy donors transduced with Cbl-b siRNA or Scr siRNA without or with IL-15 treatment for 16 h (n=4 in each group). […] The intracellular results were supported by assessment IFN-γ secretion into the supernatant, in that IL-15-activated primary human NK cells transduced with Cbl-b siRNA expressed 10-fold higher levels of IFN-γ compared to NK cells transduced with Scr siRNA (FIG. 4D)."}, "Cbl-b": {"test_system": "Cbl-b", "assay": "siRNA knockdown efficiency by immunoblot in primary human NK cells", "assay_type": "cell-based", "conditions": "48 h transduction, vs Scr siRNA", "experimental": "FIG. 8A Primary human NK cells were transduced with Cbl-b siRNA or a scrambled siRNA (Scr siRNA) for 48 h, directly followed by immunoblot analysis to determine the efficiency of siRNA (n=3 donors). […] FIG. 8B qRT-PCR was performed to quantify the level of perform mRNA (n=7 donors) in Cbl-b siRNA- and Scr siRNA-transduced primary human cells incubated without or with IL-15 (10 ng/ml) for 16 h. FIG. 8C The perform protein level in Cbl-b siRNA- and Scr siRNA-transduced primary human NK cells incubated 24 without or with IL-15 (10 ng/ml) for 24 h was measured by immunoblot analysis. The data are representative of four experiments and are summarized in the right panel. Scr, scrambled; *P<0.05, **P<0.01; ns, not significant. Data are presented as mean±SEM.\nTransient transfection. Primary human NK cells were transfected with Accell siRNA by using the Accell delivery media from Dharmacon. Gene knockdown efficiency of siRNA was determined with immunoblotting analysis.\nImmunoblotting. […] Densitometric analysis was performed to quantify intensity of gel bands with Image J (National Institutes of Health).\nas §2"}}, "data": [{"substance": "Cbl-b siRNA: Cbl-b-specific Accell siRNA (Dharmacon), SEQ ID NO:1, CCUUCAUGUUCAGAUGGUU (Accell modified siRNA, pattern not given here)", "values": [{"measurement": "concentration of granzyme B protein in supernatants", "setting": "granzyme B; with IL-15 (10 ng/ml) 24 h, n=8 donors", "value": 8789, "unit": "pg/mL"}, {"measurement": "concentration of granzyme B protein in supernatants", "setting": "granzyme B; without IL-15, n=8 donors", "value": 688.1, "unit": "pg/mL"}, {"measurement": "IFN-γ concentration in supernatants", "setting": "IFN-γ; IL-15 (10 ng/ml) 24 h, n=7 donors", "value": 18115, "unit": "pg/mL"}, {"measurement": "secreted IFN-γ level relative to Scr siRNA", "setting": "IFN-γ; IL-15-activated", "value": 10, "unit": "fold"}, {"measurement": "expression of Cbl-b after siRNA transduction", "setting": "Cbl-b", "value": "significant decrease"}]}]}
